Type in all cases: cell-based
For one experiment, the target named is mutant CFTR (Homo sapiens, UniProt P13569). Kind of experiment: Fluorescence assay for CFTR activity (halide-sensitive YFP, HS-YFP). The conditions noted are these: CFBE41o- and FRT cells with stable expression of mutant CFTR. As for the experimental part:
Mutant CFTR activity was determined with the functional assay based on the halide-sensitive yellow fluorescent protein, HS—YFP (Galietta et al., FEBS Lett 499:220-224, 2001). CFBE41o- and FRT cells with stable expression of mutant CFTR and HS—YFP were plated on clear-bottom 96-well black microplates (Code 3603, Corning Life Sciences) at a density of 50,000 cells/well and kept at 37° C. in 5% CO2 for 24 hours.
For the corrector assay, cells were treated for further 24 hours with test compounds, vehicle (DMSO), or the positive control VX-809. After treatment, the culture medium was removed and cells in each well were stimulated for 30 min at 37° C. with 60 μL PBS (containing 137 mM NaCl, 2.7 mM KCl, 8.1 mM Na2HPO4, 1.5 mM KH2PO4, 1 mM CaCl2, and 0.5 mM MgCl2) plus forskolin (20 μM) and genistein (50 μM).
For determination of potentiator activity on F508del-CFTR, cells were incubated for 24 hours at 27° C. to allow trafficking of the mutant protein to plasma membrane. Cells were then stimulated with for 30 min with PBS containing forskolin (20 μM) plus the compound to be tested at the desired concentration. For determination of potentiator activity on G551D-CFTR or G1349D-CFTR, cells were directly stimulated with forskolin plus test compound without previous incubation at low temperature. At the time of assay, microplates carrying CFBE41o- or FRT cells were transferred to microplate readers (BMG Labtech) equipped with high-quality excitation (HQ500/20×: 500±10 nm) and emission (HQ535/30M: 535±15 nm) filters for YFP (Chroma Technology). The assay consisted of a continuous 14 s fluorescence reading with 2 s before and 12 s after injection of an iodide-containing solution (165 μL of a modified PBS containing I^− instead of Cl^−; final I^− concentration in the well: 100 mM). Data were normalized to the initial background-subtracted fluorescence. Enhanced CFTR activity, induced by correctors and/or potentiators, results in accelerated I^− influx that in turn causes faster HS—YFP quenching (Pedemonte et al., Mol Pharmacol 68:1736-1746, 2005; Pedemonte et al., J Clin Invest 115:2564-2571, […]). To determine fluorescence quenching rate associated with I^− influx, the final 10 s of data for each well were fitted with an exponential function to extrapolate initial slope (dF/dt).
EC50 obtained are illustrated in Table 1 wherein+: EC50>2 μM; ++: 1.0 μM <EC50<2 μM; +++: EC50<1 μM.

The target of experiment [1] is T1, F508del-CFTR (Homo sapiens, UniProt P13569, DEL508-508). As to the kind of experiment: Short-circuit current recordings on human bronchial epithelial cells from CF patients (F508del/F508del). Conditions: HBE cells F508del/F508del, 24 hrs treatment, CPT-cAMP plus VX-770 minus CFTRinh-172. Set-up: Human bronchial epithelial (HBE) cells obtained from CF patients (F508del/F508del genotype); endogenous in cells; host or cells: primary human bronchial epithelial cells from CF patients, F508del/F508del. As for the experimental part: Human bronchial epithelial (HBE) cells obtained from CF patients (F508del/F508del genotype) were plated on Snapwell inserts (Code 3801, Corning Life Sciences) at a density of 500,000 cells per insert. Cells were cultured for two weeks in a differentiating medium whose compositions has been previously described (Scudieri et al., J Physiol 590:6141-6155, 2012). For the first week, the medium was kept on both apical and basolateral sides of inserts (submerged condition). For the second week, the apical medium was removed (air-liquid condition, ALC). To test the activity of correctors, cells were treated for 24 hrs with compounds dissolved in the basolateral medium. After treatment, Snapwell inserts carrying differentiated bronchial epithelia were mounted in a vertical chamber resembling an Ussing system with internal fluid circulation. Both apical and basolateral hemichambers were filled with 5 mL of a Krebs bicarbonate solution containing (in mM): 126 NaCl, 0.38 KH2PO4, 2.13 K2HPO4, 1 MgSO4, 1 CaCl2, 24 NaHCO3, and 10 glucose. Both sides were continuously bubbled with a gas mixture containing 5% CO2-95% air and the temperature of the solution was kept at 37° C. The transepithelial voltage was short-circuited with a voltage-clamp (DVC-1000, World Precision Instruments) connected to the apical and basolateral chambers via Ag/AgCl electrodes and agar bridges (1 M KCl in 1% agar). The offset between voltage electrodes and the fluid resistance were canceled before experiments. The short-circuit current was recorded with a PowerLab 4/25 (ADInstruments) analogical to digital converter connected to a Macintosh computer. […] The difference between the current measured with CPT-cAMP plus potentiator and the current remaining after CFTRinh-172 treatment (ΔICFTR) was taken as the parameter reflecting F508del-CFTR expression in the apical membrane.
T1 sequence (P13569 with tags, fused parts or gaps DEL508-508): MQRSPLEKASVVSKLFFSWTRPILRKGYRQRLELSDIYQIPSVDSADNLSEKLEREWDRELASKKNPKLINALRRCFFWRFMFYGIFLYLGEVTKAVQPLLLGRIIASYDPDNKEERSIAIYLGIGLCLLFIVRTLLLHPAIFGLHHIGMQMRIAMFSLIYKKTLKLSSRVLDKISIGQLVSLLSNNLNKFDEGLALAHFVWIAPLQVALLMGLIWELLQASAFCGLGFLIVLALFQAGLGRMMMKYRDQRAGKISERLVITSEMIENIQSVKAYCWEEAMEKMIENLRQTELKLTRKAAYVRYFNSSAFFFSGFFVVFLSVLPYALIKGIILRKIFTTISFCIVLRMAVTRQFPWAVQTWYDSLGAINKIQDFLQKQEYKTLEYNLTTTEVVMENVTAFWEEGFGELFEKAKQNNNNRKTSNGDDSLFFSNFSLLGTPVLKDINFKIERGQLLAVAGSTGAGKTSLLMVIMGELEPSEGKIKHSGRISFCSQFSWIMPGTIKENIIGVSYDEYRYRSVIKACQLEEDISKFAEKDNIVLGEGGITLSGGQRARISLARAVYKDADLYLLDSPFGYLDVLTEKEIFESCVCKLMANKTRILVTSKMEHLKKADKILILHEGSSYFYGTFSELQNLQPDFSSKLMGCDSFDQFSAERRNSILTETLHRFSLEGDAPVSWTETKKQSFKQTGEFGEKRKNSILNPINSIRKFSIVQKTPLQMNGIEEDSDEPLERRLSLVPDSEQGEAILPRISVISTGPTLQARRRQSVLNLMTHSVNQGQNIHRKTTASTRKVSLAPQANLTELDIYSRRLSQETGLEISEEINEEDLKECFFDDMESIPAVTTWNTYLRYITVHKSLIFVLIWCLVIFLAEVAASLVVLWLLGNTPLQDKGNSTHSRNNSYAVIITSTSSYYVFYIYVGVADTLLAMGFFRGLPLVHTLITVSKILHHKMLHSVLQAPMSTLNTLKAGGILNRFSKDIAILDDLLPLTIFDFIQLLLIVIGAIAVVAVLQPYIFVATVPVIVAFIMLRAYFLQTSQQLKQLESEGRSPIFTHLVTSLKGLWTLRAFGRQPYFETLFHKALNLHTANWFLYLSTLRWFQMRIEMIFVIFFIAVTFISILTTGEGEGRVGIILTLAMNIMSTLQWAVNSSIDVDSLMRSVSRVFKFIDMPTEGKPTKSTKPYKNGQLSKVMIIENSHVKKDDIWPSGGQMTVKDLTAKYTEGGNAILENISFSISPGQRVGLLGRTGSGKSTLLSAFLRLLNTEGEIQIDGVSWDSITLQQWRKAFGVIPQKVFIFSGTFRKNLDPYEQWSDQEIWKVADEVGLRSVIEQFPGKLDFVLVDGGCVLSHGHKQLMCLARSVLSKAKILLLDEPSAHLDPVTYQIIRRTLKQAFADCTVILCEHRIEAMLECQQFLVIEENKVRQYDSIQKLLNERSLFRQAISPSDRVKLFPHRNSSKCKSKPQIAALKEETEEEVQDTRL
Activities of selected compounds on HBE cells (expressed as ΔICFTR) are illustrated in Table 3 wherein+: ΔICFTR<2.0 μA; ++: 2.0 μA<ΔICFTR<3.0 μA; +++: ΔICFTR >3.0 μA.

Experiment [2] has as its target T1, F508del-CFTR. Kind of experiment: Transepithelial electrical conductance (TEEC) in FRT cells expressing F508del-CFTR. Set-up: expressed in transfected cells; host or cells: FRT cells. Conditions: tested at 5.0 μM, 24 hrs incubation. As for the experimental part: FRT cells expressing F508del-CFTR were plated on HTS Transwell-24 well permeable supports (Code 3379, Corning Life Sciences) at a density of 200,000 cells/well. After six days, cells were incubated for 24 hrs with test correctors, vehicle, or VX-809. Compounds were dissolved in both basolateral (800 μL) and apical (300 μL) culture medium. After treatment, the culture medium was removed and replaced on both sides with a saline solution containing (in mM): 130 NaCl, 2.7 KCl, 1.5 KH2PO4, 1 CaCl2, 0.5 MgCl2, 10 glucose, 10 Na-Hepes (pH 7.4). The basolateral and apical side received 800 μL and 100 μL, respectively. The 24-well tray with cells was placed on a block heater (SBH 130D, Stuart) to keep the temperature at 37° C. during the entire experiment. After 10 min, the basal transepithelial electrical resistance (TEER) across each layer of FRT cells was measured with a STX100C electrode pair connected to an EVOM2 voltohmeter (World Precision Instruments). To stimulate F508del-CFTR, each well received (apical side) 50 μL of saline solution containing 60 μM forskolin and 150 μM genistein (final concentrations: 20 μM forskolin, 50 μM genistein). Forskolin was also pipetted in the basolateral medium to obtain the 20 μM concentration. After 10 min TEER was measured again in each well. To block F508del-CFTR function, the inhibitor PPQ-102 was used at the final concentration of 30 μM. To achieve the desired concentration, 75 μL of the apical solution in each well was replaced with an equal volume of saline solution containing 20 μM forskolin, 50 μM genistein, and 60 μM PPQ-102. After further 10 min, the transepithelial electrical resistance was measured. All values of TEER were converted to transepithelial electrical conductance (TEEC) using the formula TEEC=1/TEER. The parameter to indicate activity of F508del-CFTR in each well (ATEEC) was calculated from the difference in TEEC measured after maximal stimulation of F508del-CFTR with forskolin and genistein and after block with PPQ-102.
Corrector activities obtained on selected compounds tested at 5.0 μM (expressed as ΔTEEC values) are illustrated in Table 2, wherein+: ΔTEEC<2000 μS; ++: 2000 μS <ΔTEEC<3000ρS; +++: ΔTEEC>3000 μS.

Molecules are shown by their SMILES.

A word on the EC50: it is the concentration that produces a half-maximal response.

Sequence of mutant CFTR (P13569 with tags, fused parts or gaps DEL508-508): as above

For the compound `NC(=O)c1sc2ccccc2c1C1CN(S(=O)(=O)c2ccc3c(c2)OCCO3)CCO1` (racemic) [compound 018, rac-3-[(4-(2,3-dihydro-1,4-benzodioxin-6-ylsulfonyl)morpholin-2-yl]benzothiophene-2-carboxamide], on mutant CFTR, the EC50 was < 1000 nM. In addition, the “activity (ΔICFTR)” value on F508del-CFTR [1] is listed as “++ (2.0 μA<ΔICFTR<3.0 μA)”.

For the compound `NC(=O)c1sc2ccccc2c1C1CN(S(=O)(=O)c2ccc(OC(F)(F)F)cc2)CCO1` (racemic) [compound 039, rac-3-[4-[4-(trifluoromethoxy)phenyl]sulfonylmorpholin-2-yl]benzothiophene-2-carboxamide], at mutant CFTR, the EC50 was < 1000 nM. Also, at F508del-CFTR [2], the “activity (corrector activity expressed as ΔTEEC)” value is recorded as “++ (2000 μS <ΔTEEC<3000ρS)”.

In the case of `Cc1cc(S(=O)(=O)N2CCOC(c3c(C(N)=O)sc4ccccc34)C2)ccc1C(F)(F)F` (racemic) [compound 044, rac-3-[4-[3-methyl-4-(trifluoromethyl)phenyl]sulfonylmorpholin-2-yl]benzothiophene-2-carboxamide], the EC50 on mutant CFTR lay in the range of 1000 to 2000 nM. For the same compound, the “activity (ΔICFTR)” value at F508del-CFTR [1] is reported as “++ (2.0 μA<ΔICFTR<3.0 μA)”.

Turning to `Cc1cc(S(=O)(=O)N2CCO[C@H](c3c(C(N)=O)sc4ccccc34)C2)ccc1F` (single isomer, unassigned) [compound 013], the EC50 on mutant CFTR is > 2000 nM. In addition, the “activity (ΔICFTR)” value at F508del-CFTR [1] is given as “++ (2.0 μA<ΔICFTR<3.0 μA)”.

`NC(=O)c1sc2ccccc2c1[C@@H]1CN(S(=O)(=O)c2ccc(C(F)(F)F)cc2)CCO1` (single isomer, unassigned) [compound 042]: the EC50 at mutant CFTR was > 2000 nM. Also, on F508del-CFTR [2], the “activity (corrector activity expressed as ΔTEEC)” value is reported as “+ (ΔTEEC<2000 μS)”.

`NC(=O)c1sc2ccccc2c1[C@H]1CN(S(=O)(=O)c2ccc(C(F)(F)F)cc2)CCO1` (single isomer, unassigned) [compound 043]: at mutant CFTR, the EC50 was < 1000 nM. Moreover, the “activity (corrector activity expressed as ΔTEEC)” value on F508del-CFTR [2] is listed as “+++ (ΔTEEC>3000 μS)”.

`Cc1nc2ccc(S(=O)(=O)N3CCO[C@@H](c4c(C(N)=O)sc5ccccc45)C3)cc2o1` (single isomer, unassigned) [compound 070]: the EC50 at mutant CFTR was > 2000 nM.

Take `Cc1nc2ccc(S(=O)(=O)N3CCO[C@H](c4c(C(N)=O)sc5ccccc45)C3)cc2o1` (single isomer, unassigned) [compound 071]: the EC50 on mutant CFTR was < 1000 nM. Also, the “activity (ΔICFTR)” value at F508del-CFTR [1] is “+++ (ΔICFTR >3.0 μA)”.

Take `Cc1ccc(S(=O)(=O)N2CCO[C@@H](c3c(C(N)=O)sc4ccccc34)C2)cc1F` (single isomer, unassigned) [compound 072]: the EC50 on mutant CFTR was > 2000 nM.

Regarding `Cc1ccc(S(=O)(=O)N2CCO[C@H](c3c(C(N)=O)sc4ccccc34)C2)cc1F` (single isomer, unassigned) [compound 073], the concentration for a half-maximal effect (EC50) at mutant CFTR is < 1000 nM.

`CNC(=O)c1sc2ccccc2c1C1CN(S(=O)(=O)c2c(C)noc2C)CCO1` (stereo not drawn) [compound 075, 3-[4-(3,5-dimethyl-isoxazole-4-sulfonyl)-morpholin-2-yl]-benzo[b]thiophene-2-carboxylic acid methylamide]: the EC50 on mutant CFTR was > 2000 nM.

For the compound `CC(C)NC(=O)c1sc2ccccc2c1C1CN(S(=O)(=O)c2cnn(C)c2)CCO1` (stereo not drawn) [compound 076, 3-[4-(1-methyl-1H-pyrazole-4-sulfonyl)-morpholin-2-yl]-benzo[b]thiophene-2-carboxylic acid isopropylamide], the EC50 on mutant CFTR is > 2000 nM.

Consider `CN(C)C(=O)c1sc2ccccc2c1C1CN(S(=O)(=O)C2CCCC2)CCO1` (stereo not drawn) [compound 078, 3-[4-(cyclopentylsulfonyl)-2-morpholinyl]-N,N-dimethyl-1-benzothiophene-2-carboxamide], for which the EC50 on mutant CFTR is > 2000 nM.

For the compound `Cc1c(S(=O)(=O)N2CCOC(c3c(C(=O)N(C)C)sc4ccccc34)C2)cnn1C` (stereo not drawn) [compound 079, 3-{4-[(1,5-dimethyl-1H-pyrazol-4-yl)sulfonyl]-2-morpholinyl}-N,N-dimethyl-1-benzothiophene-2-carboxamide], the EC50 on mutant CFTR is > 2000 nM.

Consider `O=C(NCCO)c1sc2ccccc2c1C1CN(S(=O)(=O)c2ccccc2)CCO1` (stereo not drawn) [compound 080, N-(2-hydroxyethyl)-3-[4-(phenylsulfonyl)-2-morpholinyl]-1-benzothiophene-2-carboxamide], for which the EC50 at mutant CFTR is > 2000 nM.

For the compound `CNC(=O)c1sc2ccccc2c1C1CN(S(=O)(=O)C2CCCC2)CCO1` (stereo not drawn) [compound 081, 3-(4-cyclopentanesulfonyl-morpholin-2-yl)-benzo[b]thiophene-2-carboxylic acid methylamide], on mutant CFTR, the EC50 is > 2000 nM.

For the compound `Cc1n[nH]c(C)c1S(=O)(=O)N1CCOC(c2c(C(=O)N(C)C)sc3ccccc23)C1` (stereo not drawn) [compound 083, 3-{4-[(3,5-dimethyl-1H-pyrazol-4-yl)sulfonyl]-2-morpholinyl}-N,N-dimethyl-1-benzothiophene-2-carboxamide], the half-maximal effective concentration (EC50) on mutant CFTR is > 2000 nM.

For the origin of these results see patent US12391680B2, “Compounds and compositions for the treatment of cystic fibrosis” (FONDAZIONE ISTITUTO ITALIANO DI TECNOLOGIA, priority 2019, dated 2025).
